# pIC50: −log10 of the molar value.
# Target: T1, DENV-2 NS2B-NS3 protease (Dengue virus 2 Thailand/16681/84, UniProt P29990)
# T1 construct: NS2BNS3 gene RT-PCR amplified from DENV-2 16681 RNA genome; AVI tag in forward primer, F2A peptide in reverse primer; in pcDNA3.1-HisC (pcDNA-DEN2_NS2BNS3), transiently expressed in HEK293T; parts of the genome polyprotein; with Serine protease subunit NS2B
# Test: cell-based
# T1 sequence (P29990 1346-2093 limits assumed): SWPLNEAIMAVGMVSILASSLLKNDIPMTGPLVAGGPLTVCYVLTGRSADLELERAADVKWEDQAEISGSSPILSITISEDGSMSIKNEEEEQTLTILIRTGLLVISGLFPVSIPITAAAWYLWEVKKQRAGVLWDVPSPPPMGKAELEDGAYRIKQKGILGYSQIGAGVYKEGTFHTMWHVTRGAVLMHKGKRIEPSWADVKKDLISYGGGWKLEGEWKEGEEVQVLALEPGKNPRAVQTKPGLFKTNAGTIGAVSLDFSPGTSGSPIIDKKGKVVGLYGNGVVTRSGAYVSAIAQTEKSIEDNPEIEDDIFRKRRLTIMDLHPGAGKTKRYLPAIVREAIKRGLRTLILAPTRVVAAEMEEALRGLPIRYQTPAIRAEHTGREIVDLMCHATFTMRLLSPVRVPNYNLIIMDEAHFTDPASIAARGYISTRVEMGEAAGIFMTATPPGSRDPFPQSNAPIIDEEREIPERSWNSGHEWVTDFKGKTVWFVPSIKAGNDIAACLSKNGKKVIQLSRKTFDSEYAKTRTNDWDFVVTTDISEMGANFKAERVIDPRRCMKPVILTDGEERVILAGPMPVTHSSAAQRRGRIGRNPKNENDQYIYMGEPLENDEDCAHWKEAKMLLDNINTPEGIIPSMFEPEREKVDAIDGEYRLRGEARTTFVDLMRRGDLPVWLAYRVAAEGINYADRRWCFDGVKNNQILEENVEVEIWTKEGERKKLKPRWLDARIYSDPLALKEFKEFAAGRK
smiles,measurement,value
c1cnc2cc3c(cc2n1)C1CNCC3C1 [varenicline],pIC50,< 4.70

# Source: paper PMC10604274, “The Antiviral Activity of Varenicline against Dengue Virus Replication during the Post-Entry Stage” (Biomedicines, 2023)
